From patent US7429660B2, “ATM inhibitors” (Kudos Pharmaceuticals Limited, priority 2003, dated 2008)

target: T1, ATM protein immunoprecipitated from HeLa cell nuclear extract (Homo sapiens, UniProt Q13315); experiment: In vitro ATM inhibition assay (phosphorylation of GSTp53N66 on serine 15, chemiluminescent detection); type: biochemical; details: read-out: IC50 values (the concentration at which 50% of the enzyme activity is inhibited), ATM inhibition; also: tested normally from 100 µM down to 0.1 nM
T1 construct: ATM protein was immunoprecipitated from HeLa cell nuclear extract; endogenous in cells; host or cells: HeLa cell nuclear extract (immunoprecipitated with rabbit polyclonal anti-ATM antiserum)
Description: In order to assess the inhibitory action of the compounds against ATM in vitro, the following assay was used to determine IC50 values. ATM protein was immunoprecipitated from HeLa cell nuclear extract using rabbit polyclonal anti-sera raised to the C-terminal ˜500 amino-acid residues of the human ATM protein. […] 10 μl of immunoprecipitated ATM in Buffer C (50 mM Hepes, pH 7.4, 6 mM MgCl2, 150 mM NaCl, 0.1 mM sodium orthovanadate, 4 mM MnCl2, 0.1 mM dithiothreitol, 10% glycerol) was added to 32.5 μl of buffer C containing 1 μg of the ATM substrate GSTp53N66 in a V-bottomed 96 well polypropylene plate. The GSTp53N66 substrate is the amino terminal 66 amino acid residues of human wild type p53 fused to glutathione S-transferase. […] Varying concentrations of inhibitor were then added. […] After 10 minutes of incubation at 37° C., the reactions were initiated by the addition of 5 μl of 500 μM Na-ATP. After 1 hour with shaking at 37° C., 150 μl of phosphate buffered saline (PBS) was added to the reaction and the plate centrifuged at 1500 rpm for 10 minutes. 5 μl of the reaction was then transferred to a 96 well opaque white plate containing 45 μl of PBS to allow the GSTp53N66 substrate to bind to the plate wells. The plate was covered and incubated at room temperature for 1 hour with shaking before discarding the contents. The plate wells were washed twice by the addition of PBS prior to the addition of 3% (w/v) bovine serum albumin (BSA) in PBS. The plate was incubated at room temperature for 1 hour with shaking before discarding the contents and washing twice with PBS. To the wells, 50 μl of a 1:10,000 dilution of primary phosphoserine-15 antibody (Cell Signaling Technology, #9284L) in 3% BSA/PBS was added to detect the phosphorylation event on the serine 15 residue of p53 elicited by the ATM kinase. […] The wells were then washed four times with PBS before the addition of chemiluminescence reagent (NEN Renaissance, NEL105). The plate was then shaken briefly, covered with a transparent plate seal and transferred to a TopCount NXT for chemiluminescent counting. Counts per second, following a one second counting time, were recorded for each reaction.
The enzyme activity for each compound is then calculated using the following equation:
[formula] Results In vitro ATM assays
Compounds were assayed for ATM inhibition activity using the method described above. […] These are determined over a range of different concentrations, normally from 100 μM down to 0.1 nM. Such IC50 values are used as comparative values to identify increased compound potencies.

T1 sequence (Q13315 whole entry): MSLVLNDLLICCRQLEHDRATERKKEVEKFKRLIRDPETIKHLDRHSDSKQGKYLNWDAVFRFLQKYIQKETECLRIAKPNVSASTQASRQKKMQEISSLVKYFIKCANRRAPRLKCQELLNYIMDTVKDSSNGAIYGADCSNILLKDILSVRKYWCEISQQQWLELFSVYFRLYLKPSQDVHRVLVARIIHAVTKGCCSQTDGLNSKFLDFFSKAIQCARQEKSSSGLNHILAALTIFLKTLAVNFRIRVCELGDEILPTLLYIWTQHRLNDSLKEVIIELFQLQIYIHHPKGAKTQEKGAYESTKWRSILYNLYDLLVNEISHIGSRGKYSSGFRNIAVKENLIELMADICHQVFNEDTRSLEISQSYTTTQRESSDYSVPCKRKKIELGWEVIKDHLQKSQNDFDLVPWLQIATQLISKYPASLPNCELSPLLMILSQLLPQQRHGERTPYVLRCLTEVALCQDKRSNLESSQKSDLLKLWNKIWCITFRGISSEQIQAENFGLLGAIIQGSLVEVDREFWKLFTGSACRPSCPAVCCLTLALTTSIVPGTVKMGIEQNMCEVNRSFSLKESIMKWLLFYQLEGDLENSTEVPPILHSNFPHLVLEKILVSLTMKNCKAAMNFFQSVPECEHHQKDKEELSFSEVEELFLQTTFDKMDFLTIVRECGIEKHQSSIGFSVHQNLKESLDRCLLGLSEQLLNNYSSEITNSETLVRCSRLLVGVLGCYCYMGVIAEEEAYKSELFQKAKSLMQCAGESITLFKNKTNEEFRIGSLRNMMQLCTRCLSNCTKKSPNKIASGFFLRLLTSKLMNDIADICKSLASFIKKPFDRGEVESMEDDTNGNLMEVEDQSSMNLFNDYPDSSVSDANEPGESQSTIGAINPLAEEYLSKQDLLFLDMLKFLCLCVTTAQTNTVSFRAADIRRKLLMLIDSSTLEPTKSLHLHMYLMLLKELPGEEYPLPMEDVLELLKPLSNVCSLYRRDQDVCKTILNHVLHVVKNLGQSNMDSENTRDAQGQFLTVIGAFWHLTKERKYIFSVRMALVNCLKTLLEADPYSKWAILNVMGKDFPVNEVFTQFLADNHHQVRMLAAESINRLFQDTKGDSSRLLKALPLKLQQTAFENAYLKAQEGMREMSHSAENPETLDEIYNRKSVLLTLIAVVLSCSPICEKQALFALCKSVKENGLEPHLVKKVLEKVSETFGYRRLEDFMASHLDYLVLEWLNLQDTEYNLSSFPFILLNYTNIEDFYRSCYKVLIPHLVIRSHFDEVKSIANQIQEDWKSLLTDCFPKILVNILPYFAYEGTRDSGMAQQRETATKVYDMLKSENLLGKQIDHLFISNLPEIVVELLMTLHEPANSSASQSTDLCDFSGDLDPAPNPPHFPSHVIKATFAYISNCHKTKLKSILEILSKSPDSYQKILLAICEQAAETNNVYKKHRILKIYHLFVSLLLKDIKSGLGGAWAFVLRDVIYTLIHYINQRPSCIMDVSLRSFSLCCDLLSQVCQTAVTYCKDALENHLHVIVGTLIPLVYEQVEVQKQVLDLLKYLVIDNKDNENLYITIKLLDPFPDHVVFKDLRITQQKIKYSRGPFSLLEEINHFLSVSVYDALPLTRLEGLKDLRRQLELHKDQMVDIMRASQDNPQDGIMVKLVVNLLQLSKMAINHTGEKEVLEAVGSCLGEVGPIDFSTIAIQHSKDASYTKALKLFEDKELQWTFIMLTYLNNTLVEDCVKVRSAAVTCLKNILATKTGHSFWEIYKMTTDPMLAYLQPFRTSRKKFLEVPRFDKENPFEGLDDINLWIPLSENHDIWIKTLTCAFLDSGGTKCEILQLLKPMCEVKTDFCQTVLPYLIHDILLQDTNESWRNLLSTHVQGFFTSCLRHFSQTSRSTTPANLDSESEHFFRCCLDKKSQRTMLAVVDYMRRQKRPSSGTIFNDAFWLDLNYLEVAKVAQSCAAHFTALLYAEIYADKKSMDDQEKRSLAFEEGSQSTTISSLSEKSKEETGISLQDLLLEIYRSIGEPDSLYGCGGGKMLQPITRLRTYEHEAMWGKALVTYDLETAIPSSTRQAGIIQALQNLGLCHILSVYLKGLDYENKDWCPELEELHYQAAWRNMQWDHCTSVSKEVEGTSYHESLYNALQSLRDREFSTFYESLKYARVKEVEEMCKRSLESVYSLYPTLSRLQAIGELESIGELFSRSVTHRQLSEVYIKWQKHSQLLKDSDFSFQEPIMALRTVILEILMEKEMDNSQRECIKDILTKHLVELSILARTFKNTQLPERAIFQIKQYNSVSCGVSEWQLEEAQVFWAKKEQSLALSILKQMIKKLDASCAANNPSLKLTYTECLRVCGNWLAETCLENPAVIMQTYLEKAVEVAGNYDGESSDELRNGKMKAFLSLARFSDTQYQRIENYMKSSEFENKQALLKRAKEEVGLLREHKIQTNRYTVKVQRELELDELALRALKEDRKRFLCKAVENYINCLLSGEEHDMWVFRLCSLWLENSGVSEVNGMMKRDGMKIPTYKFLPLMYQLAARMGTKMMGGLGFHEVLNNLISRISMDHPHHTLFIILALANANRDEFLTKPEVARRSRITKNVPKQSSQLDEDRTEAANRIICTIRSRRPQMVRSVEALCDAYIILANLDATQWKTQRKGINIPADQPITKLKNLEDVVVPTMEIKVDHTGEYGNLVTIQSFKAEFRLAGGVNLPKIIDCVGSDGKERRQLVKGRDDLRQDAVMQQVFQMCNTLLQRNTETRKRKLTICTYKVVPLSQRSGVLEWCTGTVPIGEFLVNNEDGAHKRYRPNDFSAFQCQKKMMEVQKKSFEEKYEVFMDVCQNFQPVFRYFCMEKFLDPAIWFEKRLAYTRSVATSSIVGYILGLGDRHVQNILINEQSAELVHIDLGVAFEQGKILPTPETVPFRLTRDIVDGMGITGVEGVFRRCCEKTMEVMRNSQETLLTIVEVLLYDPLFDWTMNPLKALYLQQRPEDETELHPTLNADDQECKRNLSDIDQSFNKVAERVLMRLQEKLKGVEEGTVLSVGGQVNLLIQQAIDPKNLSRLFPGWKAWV

| IC50 [nM] | SMILES |
| --- | --- |
| < 200 | O=C(c1ccc2c(c1)Sc1cccc(-c3cc(=O)cc(N4CCOCC4)o3)c1S2)N1CCN(c2ccccn2)CC1 [Compound 8] |
| < 200 | CC(C)NC(=O)CN1CCN(C(=O)c2ccc3c(c2)Sc2cccc(-c4cc(=O)cc(N5CCOCC5)o4)c2S3)CC1 [Compound 14] |
| < 200 | O=C(c1ccc2c(c1)Sc1cccc(-c3cc(=O)cc(N4CCOCC4)o3)c1S2)N1CCN(c2ccccc2F)CC1 [Compound 15] |
| < 200 | CC(C)(C)OC(=O)N1CCN(C(=O)c2ccc3c(c2)Sc2cccc(-c4cc(=O)cc(N5CCOCC5)o4)c2S3)CC1 [Compound 16] |
| < 200 | COCCN1CCN(C(=O)c2ccc3c(c2)Sc2cccc(-c4cc(=O)cc(N5CCOCC5)o4)c2S3)CC1 [Compound 17] |
| < 200 | O=C(Nc1ccc2c(c1)Sc1cccc(-c3cc(=O)cc(N4CCOCC4)o3)c1S2)c1ccc2c(c1)OCO2 [Compound 25] |
| < 200 | COC(=O)CCCC(=O)Nc1ccc2c(c1)Sc1cccc(-c3cc(=O)cc(N4CCOCC4)o3)c1S2 [Compound 26] |
| < 200 | COc1ccccc1C(=O)Nc1ccc2c(c1)Sc1cccc(-c3cc(=O)cc(N4CCOCC4)o3)c1S2 [Compound 31] |
| < 200 | O=C(Cc1cccs1)Nc1ccc2c(c1)Sc1cccc(-c3cc(=O)cc(N4CCOCC4)o3)c1S2 [Compound 33] |
| < 200 | Cc1noc(C)c1C(=O)Nc1ccc2c(c1)Sc1cccc(-c3cc(=O)cc(N4CCOCC4)o3)c1S2 [Compound 35] |
| < 200 | COC(=O)C(=O)Nc1ccc2c(c1)Sc1cccc(-c3cc(=O)cc(N4CCOCC4)o3)c1S2 [Compound 36] |
| < 200 | COc1cc(C(=O)Nc2ccc3c(c2)Sc2cccc(-c4cc(=O)cc(N5CCOCC5)o4)c2S3)cc(OC)c1OC [Compound 40] |
| < 200 | COC(=O)CCC(=O)Nc1ccc2c(c1)Sc1cccc(-c3cc(=O)cc(N4CCOCC4)o3)c1S2 [Compound 41] |
| < 200 | CC(=O)OCC(=O)Nc1ccc2c(c1)Sc1cccc(-c3cc(=O)cc(N4CCOCC4)o3)c1S2 [Compound 42] |
| < 200 | CC(=O)OC(C(=O)Nc1ccc2c(c1)Sc1cccc(-c3cc(=O)cc(N4CCOCC4)o3)c1S2)c1ccccc1 (stereo not shown) [Compound 43] |
| < 200 | O=C(Nc1ccc2c(c1)Sc1cccc(-c3cc(=O)cc(N4CCOCC4)o3)c1S2)c1csc(-c2cccs2)n1 [Compound 46] |
| < 200 | COCCOCC(=O)Nc1ccc2c(c1)Sc1cccc(-c3cc(=O)cc(N4CCOCC4)o3)c1S2 [Compound 48] |
| < 200 | O=C(CN1CCCCC1)Nc1ccc2c(c1)Sc1cccc(-c3cc(=O)cc(N4CCOCC4)o3)c1S2 [Compound 52] |
| < 200 | O=C(CN1CCNCC1)Nc1ccc2c(c1)Sc1cccc(-c3cc(=O)cc(N4CCOCC4)o3)c1S2 [Compound 53] |
| < 200 | COCCN(CCOC)CC(=O)Nc1ccc2c(c1)Sc1cccc(-c3cc(=O)cc(N4CCOCC4)o3)c1S2 [Compound 56] |
| < 200 | O=C(CN1CCCC1)Nc1ccc2c(c1)Sc1cccc(-c3cc(=O)cc(N4CCOCC4)o3)c1S2 [Compound 59] |
| < 200 | O=C(CN1CCCNCC1)Nc1ccc2c(c1)Sc1cccc(-c3cc(=O)cc(N4CCOCC4)o3)c1S2 [Compound 61] |
| < 200 | O=C(CNCC1CCCO1)Nc1ccc2c(c1)Sc1cccc(-c3cc(=O)cc(N4CCOCC4)o3)c1S2 (stereo not shown) [Compound 68] |
| < 200 | O=C(CNCc1ccncc1)Nc1ccc2c(c1)Sc1cccc(-c3cc(=O)cc(N4CCOCC4)o3)c1S2 [Compound 71] |
| < 200 | CC(=O)N1CCN(CC(=O)Nc2ccc3c(c2)Sc2cccc(-c4cc(=O)cc(N5CCOCC5)o4)c2S3)CC1 [Compound 77] |
| < 200 | COCCN1CCN(CC(=O)Nc2ccc3c(c2)Sc2cccc(-c4cc(=O)cc(N5CCOCC5)o4)c2S3)CC1 [Compound 78] |

Further lines, the molecule ahead of its results:

| SMILES | IC50 [nM] |
| --- | --- |
| CN1CCN(C(=O)c2ccc3c(c2)Sc2cccc(-c4cc(=O)cc(N5CCOCC5)o4)c2S3)CC1 [Compound 6] | < 200 |
| O=C(c1ccc2c(c1)Sc1cccc(-c3cc(=O)cc(N4CCOCC4)o3)c1S2)N1CCN(c2ccncc2)CC1 [Compound 9] | < 200 |
| CC(=O)N1CCN(C(=O)c2ccc3c(c2)Sc2cccc(-c4cc(=O)cc(N5CCOCC5)o4)c2S3)CC1 [Compound 11] | < 200 |
| O=C(c1ccc2c(c1)Sc1cccc(-c3cc(=O)cc(N4CCOCC4)o3)c1S2)N1CCN(c2ncccn2)CC1 [Compound 13] | < 200 |
| O=C(c1ccc2c(c1)Sc1cccc(-c3cc(=O)cc(N4CCOCC4)o3)c1S2)N1CCN(C(=O)c2ccco2)CC1 [Compound 18] | < 200 |
| O=C(c1ccc2c(c1)Sc1cccc(-c3cc(=O)cc(N4CCOCC4)o3)c1S2)N1CCNCC1 [Compound 19] | < 200 |
| Nc1ccc2c(c1)Sc1cccc(-c3cc(=O)cc(N4CCOCC4)o3)c1S2 [Compound 21, 2-(7-Amino-thianthren-1-yl)-6-morpholin-4-yl-pyran-4-one] | < 200 |
| CC(=O)Nc1ccc2c(c1)Sc1cccc(-c3cc(=O)cc(N4CCOCC4)o3)c1S2 [Compound 22] | < 200 |
| O=C(Nc1ccc2c(c1)Sc1cccc(-c3cc(=O)cc(N4CCOCC4)o3)c1S2)C1CC1 [Compound 24] | < 200 |
| N#Cc1ccc(C(=O)Nc2ccc3c(c2)Sc2cccc(-c4cc(=O)cc(N5CCOCC5)o4)c2S3)cc1 [Compound 27] | < 200 |
| O=C(Nc1ccc2c(c1)Sc1cccc(-c3cc(=O)cc(N4CCOCC4)o3)c1S2)c1cccnc1 [Compound 28] | < 200 |
| O=C(Nc1ccc2c(c1)Sc1cccc(-c3cc(=O)cc(N4CCOCC4)o3)c1S2)c1ccco1 [Compound 29] | < 200 |
| O=C(Nc1ccc2c(c1)Sc1cccc(-c3cc(=O)cc(N4CCOCC4)o3)c1S2)c1ccncc1 [Compound 30] | < 200 |
| O=C(Nc1ccc2c(c1)Sc1cccc(-c3cc(=O)cc(N4CCOCC4)o3)c1S2)c1cccs1 [Compound 32] | < 200 |
| O=C(Nc1ccc2c(c1)Sc1cccc(-c3cc(=O)cc(N4CCOCC4)o3)c1S2)C1CCC1 [Compound 34] | < 200 |
| Cn1nc(O)cc1C(=O)Nc1ccc2c(c1)Sc1cccc(-c3cc(=O)cc(N4CCOCC4)o3)c1S2 [Compound 37] | < 200 |

| SMILES | IC50 [nM] |
| --- | --- |
| CC(=O)N1CCC(C(=O)Nc2ccc3c(c2)Sc2cccc(-c4cc(=O)cc(N5CCOCC5)o4)c2S3)CC1 [Compound 38] | < 200 |
| CC(=O)Oc1ccccc1C(=O)Nc1ccc2c(c1)Sc1cccc(-c3cc(=O)cc(N4CCOCC4)o3)c1S2 [Compound 39] | < 200 |
| O=C(Nc1ccc2c(c1)Sc1cccc(-c3cc(=O)cc(N4CCOCC4)o3)c1S2)c1ccc2nsnc2c1 [Compound 45] | < 200 |
| O=C(CN1CCOCC1)Nc1ccc2c(c1)Sc1cccc(-c3cc(=O)cc(N4CCOCC4)o3)c1S2 [Compound 51] | < 200 |
| CN1CCN(CC(=O)Nc2ccc3c(c2)Sc2cccc(-c4cc(=O)cc(N5CCOCC5)o4)c2S3)CC1 [Compound 54] | < 200 |
| O=C(CN(CCO)CCO)Nc1ccc2c(c1)Sc1cccc(-c3cc(=O)cc(N4CCOCC4)o3)c1S2 [Compound 55] | < 200 |
| O=C(CNCCO)Nc1ccc2c(c1)Sc1cccc(-c3cc(=O)cc(N4CCOCC4)o3)c1S2 [Compound 57] | < 200 |
| NCCNCC(=O)Nc1ccc2c(c1)Sc1cccc(-c3cc(=O)cc(N4CCOCC4)o3)c1S2 [Compound 58] | < 200 |
| CN1CCCN(CC(=O)Nc2ccc3c(c2)Sc2cccc(-c4cc(=O)cc(N5CCOCC5)o4)c2S3)CC1 [Compound 60] | < 200 |
| O=C(CN1CCCCCC1)Nc1ccc2c(c1)Sc1cccc(-c3cc(=O)cc(N4CCOCC4)o3)c1S2 [Compound 62] | < 200 |
| O=C(CNCCCN1CCOCC1)Nc1ccc2c(c1)Sc1cccc(-c3cc(=O)cc(N4CCOCC4)o3)c1S2 [Compound 63] | < 200 |
| COc1ccc(CNCC(=O)Nc2ccc3c(c2)Sc2cccc(-c4cc(=O)cc(N5CCOCC5)o4)c2S3)cc1 [Compound 64] | < 200 |
| O=C(CSc1ncn[nH]1)Nc1ccc2c(c1)Sc1cccc(-c3cc(=O)cc(N4CCOCC4)o3)c1S2 [Compound 65] | < 200 |
| CN(C)CC(=O)Nc1ccc2c(c1)Sc1cccc(-c3cc(=O)cc(N4CCOCC4)o3)c1S2 [Compound 69] | < 200 |
| CCN(CC(=O)Nc1ccc2c(c1)Sc1cccc(-c3cc(=O)cc(N4CCOCC4)o3)c1S2)Cc1ccncc1 [Compound 72] | < 200 |
| CN(C)CCN(C)CC(=O)Nc1ccc2c(c1)Sc1cccc(-c3cc(=O)cc(N4CCOCC4)o3)c1S2 [Compound 73] | < 200 |
